This is an account of results in PMC7554696 (International Journal of Molecular Sciences, 2020).

Residues, ends and D or L forms follow the SMILES beside them. *: point of attachment. Doxorubicin(3'-N) = COc1cccc2c1C(=O)c1c(O)c3c(c(O)c1C2=O)C[C@@](O)(C(=O)CO)C[C@@H]3O[C@H]1C[C@H](N*)[C@H](O)[C@H](C)O1; Fmoc = O=C(OCC1c2ccccc2-c2ccccc21)*

In series [1] the test system is dsDNA (20 bp, 5′-CGTACGCGTACGCGTACGCG-3′ duplex). The series can be described thus: Isothermal titration calorimetry (ITC) with dsDNA. The format is binding. The conditions noted are these: 10 mM Tris-HCl pH 7.2, 25 °C. In general terms: In ITC the heat of successive injections is recorded.
Series [2] concerns dsDNA (DNA, duplex) CGTACGCGTACGCGTACGCG/CGCGTACGCGTACGCGTACG
The series can be described thus: UV-Vis absorbance titration (Benesi–Hildebrand, 480 nm). Particulars: 10 mM Tris-HCl pH 7.2, 25 °C; 18 µM compound, no added salt stated.

Series [3] relates to dsDNA (20 bp, 5′-CGTACGCGTACGCGTACGCG-3′ duplex). The series can be described thus: UV-Vis spectrophotometric titration with dsDNA (Benesi–Hildebrand). The format is binding. Particulars: 10 mM Tris-HCl pH 7.2, 25 °C.
For the next series, the system named is dsDNA. In words: Time-resolved fluorescence lifetime measurement. The format is physicochemical. The conditions noted are these: λex 420 nm, λem 594 nm, 20 °C, ligand 5 µM, constant regardless of dsDNA concentration (0–0.25 µM).
The subject of series [4] is dsDNA (DNA, duplex) CGTACGCGTACGCGTACGCG/CGCGTACGCGTACGCGTACG
The series can be described thus: ITC (single set of identical sites). Particulars: 10 mM Tris-HCl pH 7.2, 25 °C.

Series [5] concerns dsDNA (20 bp, 5′-CGTACGCGTACGCGTACGCG-3′ duplex). In words: Steady-state fluorescence quenching titration with dsDNA. Type of series: binding. The conditions noted are these: 10 mM Tris-HCl pH 7.2, 25 °C.
The subject of series [6] is dsDNA (DNA, duplex) CGTACGCGTACGCGTACGCG/CGCGTACGCGTACGCGTACG
In words: fluorescence quenching titration (Lineweaver–Burk, ex 490 nm, em 594 nm). Particulars: 10 mM Tris-HCl pH 7.2, 25 °C; 1.94 µM compound; average of two experiments.

Series [7] has as its system collagenase IV (containing MMP-2/-9). In words: Enzymatic cleavage of MMP-2/-9-cleavable octapeptide by collagenase IV (HPLC). The format is in vitro ADME. Particulars: 37 °C, APMA-activated 1 mM collagenase IV in HBSS, HPLC read-out. How it is done: The MMP-2/-9-cleavable peptide was degraded by collagenase IV (containing MMP-2/-9) in a time-dependent manner. […] In order to investigate how fast the octapeptide cleaved, the aliquots were removed after 2, 8, and 12 h.
The MMP-2/-9-cleavable octapeptide Fmoc–Gly–Pro–Leu–Gly–Leu–Ala–Gly–Gly was evaluated by enzymatic digestion with the use of collagenase IV (containing MMP-2/-9). In the first step, 1 mL of HBSS was added to […] of collagenase IV (205 u/mg) and mixed to complete dissolution. Activation of collagenase IV was performed using 1 mM APMA in 0.15 M NaOH for 1.5 h at 37 °C [24, 43]. The octapeptide stock solution was added to activated 1 mM collagenase IV and incubated at 37 °C. The aliquots were removed and analyzed by HPLC, between 2 and 12 h. The HPLC Dionex Ultimate 3000 (Waltham, MA, USA) was equipped with a bioZen Intact XB-C8 column (3.6 μm, 2.1 × 150 mm; Phenomenex, Aschaffenburg, Germany). The flow rate was set at 0.5 mL/min with a mobile phase consisting of solvent A (0.1% TFA) and solvent B (100% ACN). The gradient was as follows: 0–5 min, 0% of solvent B; 5–8 min, 0–30% of solvent B. The hydrolysis product was detected by MALDI TOF/TOF 5800 mass spectrometry (AB Sciex, Darmstadt, Germany).

Consider `COc1cccc2c1C(=O)c1c(O)c3c(c(O)c1C2=O)C[C@@](O)(C(=O)CO)C[C@@H]3O[C@H]1C[C@H](N)[C@H](O)[C@H](C)O1` [DOX, Doxorubicin], for which the “molar ratio of complex (ligand to dsDNA) from ITC” value in series [1] (standard deviation in parentheses) is reported as 7.29 (±0.09). The logKITC was 6.03 (±0.04) in series [1] (ITC, single set of identical binding sites model, SD in parentheses) and 6.03 (±0.04) log (unit not printed) in series [4] (0.174 mM compound into 0.002 mM dsDNA). The ΔHITC in series [1] (ITC, SD in parentheses) is recorded as −9.52 (±0.17) kcal/mol. Further, the TΔSITC in series [1] (ITC, calculated from ΔGITC = ΔHITC − TΔSITC) is -1.3 kcal/mol. Moreover, in series [1] (ITC, ΔGITC = −RTlnKITC, SD in parentheses), the ΔGITC is on record as −8.26 (±0.05) kcal/mol. The KA in series [2] came to 1.1e+06 M⁻¹; in series [6], 1.1e+07 M⁻¹. In addition, in series [3] (UV-Vis absorbance at 480 nm, ligand 18 µM, dsDNA up to 1.90 µM), the “intrinsic association constant KA (ligand…dsDNA), Benesi–Hildebrand” value is 1.1e+06 M⁻¹. Further, in series [3] (from spectrophotometric KA), the “free energy of binding ΔG = −RTlnKA” value was -8.23 kcal/mol. For the same compound, the “fluorescence lifetime τ0” value in the series with dsDNA was 1.057 ± 0.022 ns. The “bimolecular quenching rate constant kq (Stern–Volmer)” value in series [5] (fluorescence quenching by dsDNA, λex 490 nm, emission 594 nm, ligand 1.94 µM) worked out at 9.37e+15 M⁻¹ s⁻¹. Moreover, the “number of binding sites n (Scatchard, slope of log[(F0−F)/F] vs log[Q])” value in series [5] (fluorescence titration, ligands bound per dsDNA molecule) is “approximately 1.0”.

Take `CC(C)C[C@H](NC(=O)CNC(=O)[C@H](CC(C)C)NC(=O)[C@@H]1CCCN1C(=O)CNC(=O)OCC1c2ccccc2-c2ccccc21)C(=O)N[C@@H](C)C(=O)NCC(=O)NCC(=O)O` [Fmoc–Gly–Pro–Leu–Gly–Leu–Ala–Gly–Gly] (Fmoc-GPLGLAGG-OH): the “MMP-2/-9 cleaved product Fmoc–Gly–Pro–Leu–Gly detected (efficiency of enzymatic digestion)” value in series [7] (2 h incubation) was determined as 52.54%; in series [7] (8 h incubation) it was 69.53%; in series [7] (12 h incubation), 82.42%. For the same compound, the “substrate (octapeptide) observed after incubation with collagenase IV” value in series [7] (12 h incubation) was 17.43%.

In the case of `COc1cccc2c1C(=O)c1c(O)c3c(c(O)c1C2=O)C[C@@](O)(C(=O)CO)C[C@@H]3O[C@H]1C[C@H](NC(=O)CNC(=O)CNC(=O)[C@H](C)NC(=O)[C@@H](N)CC(C)C)[C@H](O)[C@H](C)O1` (H-LAGG-{Doxorubicin(3'-N)}), the values for the KA in series [2] and in series [6] were 540000 M⁻¹ and 5.6e+06 M⁻¹, respectively. In addition, in series [4] (0.470 mM compound into 0.005 mM dsDNA), the logKITC is 4.24 (±0.09) log (unit not printed).
